Patent US12691101B2, “Compound and method for preventing or treating of respiratory diseases comprising the same as an active ingredient” (YONSEI UNIVERSITY, UNIVERSITY - INDUSTRY FOUNDATION (UIF), priority 2019, dated 2026)

Target: T1, human wild-type (WT)-pendrin (Homo sapiens, UniProt O43511)
T1 construct: expressed in transfected cells
T1 sequence (O43511 1-780): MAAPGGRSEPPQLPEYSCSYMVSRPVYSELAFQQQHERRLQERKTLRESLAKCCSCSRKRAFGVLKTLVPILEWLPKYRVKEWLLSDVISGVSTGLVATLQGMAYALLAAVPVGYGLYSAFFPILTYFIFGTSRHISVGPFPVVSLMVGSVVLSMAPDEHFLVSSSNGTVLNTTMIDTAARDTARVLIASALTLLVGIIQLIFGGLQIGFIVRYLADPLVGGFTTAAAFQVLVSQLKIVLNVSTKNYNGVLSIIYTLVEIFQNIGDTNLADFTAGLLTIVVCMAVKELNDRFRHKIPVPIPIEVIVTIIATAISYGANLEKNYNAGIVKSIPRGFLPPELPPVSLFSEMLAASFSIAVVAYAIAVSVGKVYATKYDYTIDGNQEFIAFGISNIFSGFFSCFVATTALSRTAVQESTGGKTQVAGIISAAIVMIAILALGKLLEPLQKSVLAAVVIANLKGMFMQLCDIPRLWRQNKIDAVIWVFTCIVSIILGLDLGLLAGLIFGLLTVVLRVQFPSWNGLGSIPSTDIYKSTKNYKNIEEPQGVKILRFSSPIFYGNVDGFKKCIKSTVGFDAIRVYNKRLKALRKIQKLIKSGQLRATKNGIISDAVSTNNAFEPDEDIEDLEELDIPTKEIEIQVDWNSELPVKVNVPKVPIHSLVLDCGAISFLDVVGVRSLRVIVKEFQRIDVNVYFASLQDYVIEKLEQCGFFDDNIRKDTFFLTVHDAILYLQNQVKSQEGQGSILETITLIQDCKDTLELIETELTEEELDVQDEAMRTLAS
Assay: Pendrin-mediated Cl^−/I^− exchange activity, YFP fluorescence in CHO-K1 cells
Format: cell-based
Settings: for inhibition at 30 µM: CHO-K1, 30 μM, read-out: Pendrin inhibitory activity at 30 μM (%); for IC50: compounds showing pendrin inhibitory activity of 50% or more at 30 μM, read-out: IC50

SMILES | inhibition at 30 µM | IC50
O=C1OC(c2cccs2)=NC1=Cc1ccc(Br)s1 [F118, 4-((5-Bromothiophen-2-yl)methylene)-2-(thiophen-2-yl)oxazol-5(4H)-one] | 2.1% | 
O=C1OC(c2ccccc2)=NC1=Cc1cccn1Cc1ccccc1Cl [F65, 4-((1-(2-Chlorobenzyl)-1H-pyrrol-2-yl)methylene)-2-phenyloxazol-5(4H)-one] | 1.7% | 
O=C1OC(c2ccc(C(F)(F)F)cc2)=NC1=Cc1ccc[nH]1 [F17, 4-((1H-pyrrol-2-yl)methylene)-2-(4-(trifluoromethyl)phenyl)oxazol-5(4H)-one] | 6.9% | 
Cc1cc(C)cc(C(=O)NC(=Cc2cccs2)C(=O)O)c1 [G42, 2-(3,5-Dimethylbenzamido)-3-(thiophen-2-yl)acrylate] | 2.7% | 
CC(=O)Nc1ccc(C2=NC(=Cc3ccc(Br)s3)C(=O)O2)cc1 [F107, N-(4-(4-((5-bromothiophen-2-yl)methylene)-5-oxo-4,5-dihydrooxazol-2-yl)phenyl)acetamide] | 2.9% | 
CC(C)c1ccc(C2=NC(=Cc3ccsc3)C(=O)O2)cc1 [F47, 2-(4-Isopropylphenyl)-4-(thiophen-3-ylmethylene)oxazol-5(4H)-one] | 33.2% | 
O=C1OC(c2ccc3c(c2)OCO3)=NC1=Cc1ccc(N2CCCCC2)s1 [F100, 2-(Benzo[d][1,3]dioxoyl-5-yl)-4-((5-(piperidin-1-yl)thiophen-2-yl)methylene)oxazol-5(4H)-one] | 2.5% | 
CCCCOc1ccc(C2=NC(=Cc3cccs3)C(=O)O2)cc1 [F142, 2-(4-Butoxyphenyl)-4-(thiophen-2-ylmethylene)oxazol-5 (4H)-one] | 2.4% | 
Cn1cccc1C=C1N=C(c2ccc(C(C)(C)C)cc2)OC1=O [F6, 2-(4-(tert-butyl)phenyl)-4-((1-methyl-1H-pyrrol-2-yl)methylene)oxazol-5 (4H)-one] | 3.7% | 
COC(=O)c1ccc(C2=NC(=Cc3ccsc3)C(=O)O2)cc1 [F32, Methyl 4-(5-oxo-4-(thiophen-3-ylmethylene)-4,5-dihydrooxazol-2-yl)benzoate] | 3.7% | 
CCCc1ccc(C(=O)NC(=Cc2ccc[nH]2)C(=O)O)cc1 [G28, 2-(4-Propylbenzamido)-3-(1H-pyrrol-2-yl)acrylate] | 53.5% | 28.9 ± 2.18 µM
O=C1OC(c2ccccc2OC(F)F)=NC1=Cc1ccc(Br)s1 [F121, 4-((5-Bromothiophen-2-yl)methylene)-2-(2-(difluoromethoxy)phenyl)oxazol-5(4H)-one] | 3.4% | 
CN(C)c1ccc(C=C2N=C(c3sc4ccccc4c3Cl)OC2=O)cc1 [F59, 2-(3-Chlorobenzo[b]thiophen-2-yl)-4-(4-(dimethylamino)benzylidene)oxazol-5(4H)-one] | 1.8% | 
CCCCc1ccc(C2=NC(=Cc3ccco3)C(=O)O2)cc1 [F54, 2-(4-Butylphenyl)-4-(furan-2-ylmethylene)oxazol-5 (4H)-one] | 2.6% | 
CC(C)c1ccc(C2=NC(=Cc3ccc[nH]3)C(=O)O2)cc1 [F12, 4-((1H-pyrrol-2-yl)methylene)-2-(4-isopropylphenyl)oxazol-5(4H)-one] | 100% | 1 ± 0.15 µM
CC(=O)n1cc(C=C2N=C(c3ccc(C(C)(C)C)cc3)OC2=O)c2ccccc21 [F81, 4-((1-Acetyl-1H-indol-3-yl)methylene)-2-(4-(tert-butyl)phenyl)oxazol-5 (4H)-one] | 3.4% | 
CC(=O)Nc1ccc(C2=NC(=Cc3cc(Br)cs3)C(=O)O2)cc1 [F106, N-(4-(4-((4-bromothiophen-2-yl)methylene)-5-oxo-4,5-dihydrooxazol-2-yl)phenyl)acetamide] | 3.3% | 
COC(=O)C(=Cc1cccs1)NC(=O)c1ccc(C(C)(C)C)cc1 [G2, Methyl 2-(4-(tert-butyl)benzamido)-3-(thiophen-2-yl)acrylate] | 3.8% | 
CCCCCCc1ccc(C2=NC(=Cc3cccs3)C(=O)O2)cc1 [F139, 2-(4-Hexylphenyl)-4-(thiophen-2-ylmethylene)oxazol-5 (4H)-one] | 2.5% | 
CC(C)(C)OC(=O)C(=Cc1ccc[nH]1)NC(=O)c1ccc(C(C)(C)C)cc1 [G6, tert-butyl 2-(4-(tert-butyl)benzamido)-3-(1H-pyrrol-2-yl)acrylate] | 4.7% | 

Results, then the compound that gave them:

inhibition at 30 µM | IC50 | SMILES
20.8% |  | CCCc1ccc(C2=NC(=Cc3ccsc3)C(=O)O2)cc1 [F145, 2-(4-Propylphenyl)-4-(thiophen-3-ylmethylene)oxazol-5 (4H)-one]
2.6% |  | CC(C)(C)OC(=O)n1cc(C=C2N=C(c3ccc(C(C)(C)C)cc3)OC2=O)c2ccccc21 [F4, tert-butyl 3-((2-(4-(tert-butyl)phenyl)-5-oxooxazol-4(5H)-ylidene)methyl)-1H-indol-1-carboxylate]
85.6% | 10.2 ± 1.38 µM | CC(C)Cc1ccc(C(=O)NC(=Cc2ccc[nH]2)C(=O)O)cc1 [G26, 2-(4-Isobutylbenzamido)-3-(1H-pyrrol-2-yl)acrylate]
2.8% |  | COC(=O)c1ccc(C2=NC(=Cc3cccs3)C(=O)O2)cc1 [F7, Methyl 4-(5-oxo-4-(thiophen-2-ylmethylene)-4,5-dihydrooxazol-2-yl)benzoate]
3.5% |  | N#Cc1ccc(C2=NC(=Cc3cccs3)C(=O)O2)cc1 [F5, 4-(5-Oxo-4-(thiophen-2-ylmethylene)-4,5-dihydrooxazol-2-yl)benzonitrile]
82.8% | 8.6 ± 0.84 µM | COc1ccccc1C1=NC(=Cc2cccs2)C(=O)O1 [F34, 2-(2-Methoxyphenyl)-4-(thiophen-2-ylmethylene)oxazol-5 (4H)-one]
3.3% |  | CC(=O)Oc1ccc(C2=NC(=Cc3cccs3)C(=O)O2)cc1 [F90, 4-(5-Oxo-4-(thiophen-2-ylmethylene)-4,5-dihydrooxazol-2-yl)phenylacetate]
1.9% |  | O=C1OC(c2cccs2)=NC1=Cc1ccc(N2CCCCC2)s1 [F120, 4-((5-(Piperidin-1-yl)thiophen-2-yl)methylene)-2-(thiophen-2-yl)oxazol-5 (4H)-one]
21.3% |  | CCCc1ccc(C2=NC(=Cc3cccs3)C(=O)O2)cc1 [F144, 2-(4-Propylphenyl)-4-(thiophen-2-ylmethylene)oxazol-5(4H)-one]
2.9% |  | CC(C)Cc1ccc(C2=NC(=Cc3csc4ccccc34)C(=O)O2)cc1 [F21, 4-(Benzo[b]thiophen-3-ylmethylene)-2-(4-isobutylphenyl)oxazol-5(4H)-one]
2.7% |  | COc1cc(C2=NC(=Cc3cccs3)C(=O)O2)ccc1OC(F)F [F102, 2-(4-(Difluoromethoxy)-3-methoxyphenyl)-4-(thiophen-2-ylmethylene)oxazol-5 (4H)-one]
3.8% |  | O=C1OC(c2ccc(OC(F)F)cc2)=NC1=Cc1cccs1 [F55, 2-(4-(difluoromethoxy)phenyl)-4-(thiophen-2-ylmethylene)oxazol-5(4H)-one]
3.1% |  | CN(C)c1ccc(C=C2N=C(c3ccc4ccccc4c3)OC2=O)s1 [F105, 4-((5-(Dimethylamino)thiophen-2-yl)methylene)-2-(naphthalen-2-yl)oxazol-5(4H)-one]
2.4% |  | COc1ccc2cc(C=C3N=C(c4ccccc4)OC3=O)c(=O)[nH]c2c1 [F74, 4-((7-Methoxy-2-oxo-1,2-dihydroquinolin-3-yl)methylene)-2-phenyloxazol-5(4H)-one]
